Assay results reported in paper PMC12022103 (Scientific Reports, 2025).
No end group written: not given here.

Experiments:
E. faecalis ATCC 29212 [1] = assay: Minimum bactericidal concentration (MBC); type: cell-based; settings: 5 µL from MIC wells plated on MH II agar, 37 °C overnight, no visible colonies, triplicate, highest number reported
Protocol: (§1) The panel of bacterial reference strains used in this work for assessment of synthetic peptide activity originated from the American Type Culture Collection (ATCC) and was obtained from the Diagnostic section at the Department of Microbiology, Oslo University Hospital. The strains used were as follows: E. coli ATCC 25922, K. pneumoniae ATCC 13883, A. baumannii ATCC 17978, S. aureus ATCC 29213, and E. faecalis ATCC 29212.
(§2) Bacterial strains were plated on cation-adjusted Mueller-Hinton (MH II) agar plates and incubated at 37 °C overnight. The day after single colonies were picked and resuspended in sterile-filtered saline (0.9%). The OD of each bacterial suspension was adjusted to McFarland standard 0.5 using a spectrophotometer (UV-1800, Shimadzu), and the suspension further diluted 1:100 in MH II broth, corresponding to 10^6 colony forming units (CFU) per mL. The inoculum suspension was used for MIC, MBC, time-kill and protease stability assessments as described below. To ensure correct inoculum sizes, 10 µL of the bacterial suspensions were diluted 2000-fold in sterile-filtered saline (0.9%) and 100 µL plated onto MH II agar plates. After overnight incubation at 37 °C, colonies were counted. If found to be outside the acceptable number (20–80 colonies per plate corresponding to ∼10^6 CFU/mL), results from further analyses were discarded.
(§3) In order to assess the minimum bactericidal concentration (MBC) of peptides, 5 µL from each well of the 96-well plate used for MIC analysis was plated onto MH II agar and incubated at 37 °C overnight. […] The experiments were performed in triplicate. Two-fold variations in MIC values were often observed between replicates.

A. baumannii ATCC 17978 [2] = assay: Minimum bactericidal concentration (MBC); type: cell-based; settings: 5 µL from MIC wells plated on MH II agar, 37 °C overnight, no visible colonies, triplicate, highest number reported
Protocol: as §1, §2, §3

S. aureus ATCC 29213 [3] = assay: Minimum bactericidal concentration (MBC); type: cell-based; settings: 5 µL from MIC wells plated on MH II agar, 37 °C overnight, no visible colonies, triplicate, highest number reported
Protocol: as §1, §2, §3

K. pneumoniae ATCC 13883 [4] = assay: Minimum bactericidal concentration (MBC); type: cell-based; settings: 5 µL from MIC wells plated on MH II agar, 37 °C overnight, no visible colonies, triplicate, highest number reported
Protocol: as §1, §2, §3

E. faecalis ATCC 29212 [5] = assay: Minimum inhibitory concentration (MIC), broth dilution; type: cell-based; settings: E. faecalis ATCC 29212; MH II broth, 5 × 10^5 CFU/mL, 18–24 h, 37 °C, OD600; triplicate, highest number reported; detection limit <0.5 and >128 µM
Protocol: as §1, §2
(§4) The peptides were serially diluted (two-fold) directly in 96-well plates (Greiner, MICROPLATE, 96 WELL, PP, U-BOTTOM, NATURAL, 650261) containing MH II broth, corresponding to concentrations in the range 256–0.5 µM. An equal volume of bacterial suspension was added to each well, resulting in a final inoculum of 5 × 10^5 CFU/mL and final peptide concentrations of 128–0.25 µM. The 96-well plates were incubated for 18–24 h at 37 °C, after which the OD of each well was measured at 600 nm in a plate reader (Victor Nivo, Perkin-Elmer). The minimum inhibitory concentration (MIC) was estimated as the lowest concentration of peptide that produced OD600 measurements similar to the control wells containing no bacteria. The experiments were performed in triplicate. Two-fold variations in MIC values were often observed between replicates.

A. baumannii ATCC 17978 [6] = assay: as above; type: cell-based; settings: MH II broth, 5 × 10^5 CFU/mL, 18–24 h, 37 °C, OD600, triplicate, highest number reported, detection limit <0.5 and >128 µM
Protocol: as §1, §2, §4

S. aureus ATCC 29213 [7] = assay: as above; type: cell-based; settings: S. aureus ATCC 29213; MH II broth, 5 × 10^5 CFU/mL, 18–24 h, 37 °C, OD600; triplicate, highest number reported; detection limit <0.5 and >128 µM
Protocol: as §1, §2, §4

K. pneumoniae ATCC 13883 [8] = assay: as above; type: cell-based; settings: K. pneumoniae ATCC 13883; MH II broth, 5 × 10^5 CFU/mL, 18–24 h, 37 °C, OD600; triplicate, highest number reported; detection limit <0.5 and >128 µM
Protocol: as §1, §2, §4

P. aeruginosa [9] = assay: Minimum bactericidal concentration (MBC); type: cell-based; settings: 5 µL from MIC wells plated on MH II agar, 37 °C overnight, no visible colonies; triplicate, highest number reported
E. coli ATCC 25922 [10] = assay: Minimum inhibitory concentration (MIC), broth dilution; type: cell-based, Escherichia coli; settings: E. coli ATCC 25922; two-fold dilution in MH II broth, 5 × 10^5 CFU/mL, 18–24 h, 37 °C, OD600; triplicate, highest number reported; detection limit <0.5 and >128 µM
Protocol: as §1, §2, §4

E. coli ATCC 25922 [11] = assay: Minimum bactericidal concentration (MBC); type: cell-based, Escherichia coli; settings: 5 µL from MIC wells plated on MH II agar, 37 °C overnight, no visible colonies, triplicate, highest number reported, detection limit <0.5 and >128 µM
Protocol: as §1, §2, §3

P. aeruginosa [12] = assay: Minimum inhibitory concentration (MIC), broth dilution; type: cell-based; settings: MH II broth, 5 × 10^5 CFU/mL, 18–24 h, 37 °C, OD600; triplicate, highest number reported; detection limit <0.5 and >128 µM

Row | Substance | MBC, E. faecalis (E. faecalis ATCC 29212 [1]) | MBC, A. baumannii (A. baumannii ATCC 17978 [2]) | MBC, S. aureus (S. aureus ATCC 29213 [3]) | MBC, K. pneumoniae (K. pneumoniae ATCC 13883 [4]) | MIC, E. faecalis (E. faecalis ATCC 29212 [5]) | MIC, A. baumannii (A. baumannii ATCC 17978 [6]) | MIC, S. aureus (S. aureus ATCC 29213 [7]) | MIC, K. pneumoniae (K. pneumoniae ATCC 13883 [8]) | MBC, P. aeruginosa (P. aeruginosa [9]) | MIC, E. coli (E. coli ATCC 25922 [10]) | MBC, E. coli (E. coli ATCC 25922 [11]) | MIC, P. aeruginosa (P. aeruginosa [12])
1 | KKKKKKFVLQLILKLL-NH2 [2h-N12] | > 128 µM | > 128 µM | > 128 µM | > 128 µM | > 128 µM | > 128 µM | > 128 µM | > 128 µM | > 128 µM | > 128 µM | > 128 µM | > 128 µM
2 | VRRRRRAVLQLILRFL-NH2 [3a-N10] | 16 µM | 16 µM | 32 µM | 32 µM | 16 µM | 16 µM | 32 µM | 32 µM | 64 µM | 32 µM | 32 µM | 64 µM
3 | KKKKFVLKLILKLL-NH2 [2e-N12] | > 128 µM | > 128 µM | > 128 µM | > 128 µM | > 128 µM | > 128 µM | > 128 µM | > 128 µM | > 128 µM | > 128 µM | > 128 µM | > 128 µM
4 | KKKKFVLQLILKLL-NH2 [2f-N12] | > 128 µM | > 128 µM | > 128 µM | > 128 µM | > 128 µM | > 128 µM | > 128 µM | > 128 µM | > 128 µM | > 128 µM | > 128 µM | > 128 µM
